In US20230124862A1, “BISMUTH THIOL COMPOUNDS AND COMPOSITIONS AND METHODS OF TREATING MICROBIAL CO-INFECTIONS” (Microbion Corporation, priority 2020, published 2023):

Key:
Assay in all cases: Antifungal broth microdilution (Example 13)
Candida albicans = assay type: cell-based; settings: 24 hr; for MIC0: complete inhibition; for MIC2: 50% inhibition
Candida glabrata = assay type: cell-based; settings: for MIC0: complete inhibition; for MIC2: 50% inhibition
Candida krusei = assay type: cell-based; settings: for MIC0: complete inhibition; for MIC2: 50% inhibition
Candida auris = assay type: cell-based; settings: for MIC0: complete inhibition; for MIC2: 50% inhibition
Aspergillus spp. = assay type: cell-based, A. niger, A. terreus, A. fumigatus, A. flavus; settings: complete inhibition, comparator, time not stated
[1] = C. albicans ATCC 90028, Susceptible
[2] = C. albicans ATCC 204276, MICA-R
[3] = C. albicans ATCC MYA-2732, FLU-R, VORI-I
[4] = C. albicans MMX 7053, Susceptible
[5] = C. albicans MMX 7067, FLU-R, VORI-R
[6] = C. albicans MMX 7403, Susceptible
[7] = C. albicans MMX 7424, CASP-R, MICA-R
[8] = C. albicans MMX 7430, Susceptible
[9] = C. albicans MMX 7445, FLU-R, VORI-R
[10] = C. glabrata ATCC 90030, Susceptible
[11] = C. glabrata ATCC MYA-2950, Susceptible
[12] = C. glabrata MMX 7087, Susceptible
[13] = C. glabrata MMX 7103, CASP-R, MICA-R
[14] = C. glabrata MMX 7111, Susceptible
[15] = C. glabrata MMX 7285, CASP-R, MICA-R
[16] = C. glabrata MMX 7307, CASP-R, MICA-R, FLU-R
[17] = C. glabrata MMX 7549, Susceptible
[18] = C. krusei ATCC 14243, Susceptible
[19] = C. krusei ATCC 96685, Susceptible
[20] = C. krusei MMX 7125, Susceptible
[21] = C. krusei MMX 7128, Susceptible
[22] = C. krusei MMX 7141, Susceptible
[23] = C. krusei MMX 7155, Susceptible
[24] = C. krusei MMX 7563, Susceptible
[25] = C. krusei MMX 9878, MICA-I, VORI-I
[26] = C. auris MMX 9863, FLU-R, VORI-R
[27] = C. auris MMX 9864, FLU-R, VORI-R
[28] = C. auris MMX 9865, FLU-R, VORI-R
[29] = C. auris MMX 9866, FLU-R, VORI-R
[30] = C. auris MMX 9867, FLU-R, VORI-R
[31] = C. auris MMX 9868, FLU-R, VORI-R
[32] = C. auris MMX 9869, FLU-R, VORI-R
[33] = C. auris MMX 9870, FLU-R, VORI-R

## C[C@@H]1[C@H](O)[C@@H](C)/C=C/C=C/C=C/C=C/C=C/C=C/C=C/[C@H](O[C@@H]2O[C@H](C)[C@@H](O)[C@H](N)[C@@H]2O)C[C@@H]2O[C@](O)(C[C@@H](O)C[C@@H](O)[C@H](O)CC[C@@H](O)C[C@@H](O)CC(=O)O[C@H]1C)C[C@H](O)[C@H]2C(=O)O [AMP B]
Candida albicans; [1]
  MIC0: 0.25 µg/mL
Candida albicans; [2]
  MIC0: 0.25 µg/mL
Candida albicans; [3]
  MIC0: 0.25 µg/mL
Candida albicans; [4]
  MIC0: 0.12 µg/mL
Candida albicans; [5]
  MIC0: 0.25 µg/mL
Candida albicans; [6]
  MIC0: 0.25 µg/mL
Candida albicans; [7]
  MIC0: 0.25 µg/mL
Candida albicans; [8]
  MIC0: 0.25 µg/mL
Candida albicans; C. albicans MMX 7437, FLU-I
  MIC0: 0.25 µg/mL
Candida albicans; [9]
  MIC0: 0.12 µg/mL
Candida glabrata; [10]
  MIC0: 0.25 µg/mL
Candida glabrata; [11]
  MIC0: 0.12 µg/mL
Candida glabrata; [12]
  MIC0: 0.12 µg/mL
Candida glabrata; C. glabrata MMX 7093, FLU-R
  MIC0: 0.25 µg/mL
Candida glabrata; C. glabrata MMX 7101, FLU-R
  MIC0: 0.25 µg/mL
Candida glabrata; [13]
  MIC0: 0.25 µg/mL
Candida glabrata; [14]
  MIC0: 0.25 µg/mL
Candida glabrata; [15]
  MIC0: 0.25 µg/mL
Candida glabrata; [16]
  MIC0: 0.25 µg/mL
Candida glabrata; [17]
  MIC0: 0.25 µg/mL
Candida krusei; C. krusei ATCC 6258, MICA-I
  MIC0: 0.5 µg/mL
Candida krusei; [18]
  MIC0: 0.25 µg/mL
Candida krusei; [19]
  MIC0: 0.5 µg/mL
Candida krusei; [20]
  MIC0: 0.5 µg/mL
Candida krusei; [21]
  MIC0: 0.5 µg/mL
Candida krusei; [22]
  MIC0: 0.25 µg/mL
Candida krusei; C. krusei MMX 7153, MICA-R
  MIC0: 0.5 µg/mL
Candida krusei; [23]
  MIC0: 0.25 µg/mL
Candida krusei; [24]
  MIC0: 0.5 µg/mL
Candida krusei; [25]
  MIC0: 0.5 µg/mL
Candida auris; C. auris MMX 9862, Susceptible
  MIC0: 0.25 µg/mL
Candida auris; [26]
  MIC0: 0.12 µg/mL
Candida auris; [27]
  MIC0: 0.25 µg/mL
Candida auris; [28]
  MIC0: 0.25 µg/mL
Candida auris; [29]
  MIC0: 0.5 µg/mL
Candida auris; [30]
  MIC0: 0.5 µg/mL
Candida auris; [31]
  MIC0: 0.25 µg/mL
Candida auris; [32]
  MIC0: 1 µg/mL
Candida auris; [33]
  MIC0: 1 µg/mL
Candida auris; C. auris MMX 9871, Susceptible
  MIC0: 1 µg/mL
Aspergillus spp.; A. flavus ATCC 22546
  MIC0: 1 µg/mL
Aspergillus spp.; A. flavus ATCC 204304
  MIC0: 1 µg/mL
Aspergillus spp.; A. flavus MMX 7935
  MIC0: 1 µg/mL
Aspergillus spp.; A. fumigatus ATCC 204305
  MIC0: 1 µg/mL
Aspergillus spp.; A. fumigatus ATCC MYA-3626
  MIC0: 1 µg/mL
Aspergillus spp.; A. fumigatus MMX 5934
  MIC0: 1 µg/mL
Aspergillus spp.; A. fumigatus MMX 5938
  MIC0: 1 µg/mL
Aspergillus spp.; A. fumigatus MMX 5939
  MIC0: 1 µg/mL
Aspergillus spp.; A. niger ATCC 29508
  MIC0: 0.25 µg/mL
Aspergillus spp.; A. terreus MMX 8229
  MIC0: 0.25 µg/mL

## C[C@@H](c1ncncc1F)[C@](O)(Cn1cncn1)c1ccc(F)cc1F [VORI]
Candida albicans; [1]
  MIC2: ≤0.008 µg/mL
Candida albicans; [2]
  MIC2: ≤0.008 µg/mL
Candida albicans; [3]
  MIC2: 0.5 µg/mL
Candida albicans; [4]
  MIC2: ≤0.008 µg/mL
Candida albicans; [5]
  MIC2: >8 µg/mL
Candida albicans; [6]
  MIC2: ≤0.008 µg/mL
Candida albicans; [7]
  MIC2: ≤0.008 µg/mL
Candida albicans; [8]
  MIC2: ≤0.008 µg/mL
Candida albicans; C. albicans MMX 7437, FLU-I
  MIC2: 0.12 µg/mL
Candida albicans; [9]
  MIC2: >8 µg/mL
Candida glabrata; [10]
  MIC2: 0.12 µg/mL
Candida glabrata; [11]
  MIC2: 0.12 µg/mL
Candida glabrata; [12]
  MIC2: 0.03 µg/mL
Candida glabrata; C. glabrata MMX 7093, FLU-R
  MIC2: 2 µg/mL
Candida glabrata; C. glabrata MMX 7101, FLU-R
  MIC2: 2 µg/mL
Candida glabrata; [13]
  MIC2: 0.12 µg/mL
Candida glabrata; [14]
  MIC2: 0.06 µg/mL
Candida glabrata; [15]
  MIC2: 1 µg/mL
Candida glabrata; [16]
  MIC2: 4 µg/mL
Candida glabrata; [17]
  MIC2: 0.06 µg/mL
Candida krusei; C. krusei ATCC 6258, MICA-I
  MIC2: 0.12 µg/mL
Candida krusei; [18]
  MIC2: 0.06 µg/mL
Candida krusei; [19]
  MIC2: 0.5 µg/mL
Candida krusei; [20]
  MIC2: 0.25 µg/mL
Candida krusei; [21]
  MIC2: 0.12 µg/mL
Candida krusei; [22]
  MIC2: 0.12 µg/mL
Candida krusei; C. krusei MMX 7153, MICA-R
  MIC2: 0.25 µg/mL
Candida krusei; [23]
  MIC2: 0.25 µg/mL
Candida krusei; [24]
  MIC2: 0.25 µg/mL
Candida krusei; [25]
  MIC2: 1 µg/mL
Candida auris; C. auris MMX 9862, Susceptible
  MIC2: 0.03 µg/mL
Candida auris; [26]
  MIC2: >8 µg/mL
Candida auris; [27]
  MIC2: 7 µg/mL
Candida auris; [28]
  MIC2: 8 µg/mL
Candida auris; [29]
  MIC2: 8 µg/mL
Candida auris; [30]
  MIC2: 8 µg/mL
Candida auris; [31]
  MIC2: >8 µg/mL
Candida auris; [32]
  MIC2: 2 µg/mL
Candida auris; [33]
  MIC2: 4 µg/mL
Candida auris; C. auris MMX 9871, Susceptible
  MIC2: 1 µg/mL
Aspergillus spp.; A. flavus ATCC 22546
  MIC0: 1 µg/mL
Aspergillus spp.; A. flavus ATCC 204304
  MIC0: 2 µg/mL
Aspergillus spp.; A. flavus MMX 7935
  MIC0: 0.5 µg/mL
Aspergillus spp.; A. fumigatus ATCC 204305
  MIC0: 0.5 µg/mL
Aspergillus spp.; A. fumigatus ATCC MYA-3626
  MIC0: 0.5 µg/mL
Aspergillus spp.; A. fumigatus MMX 5934
  MIC0: 0.25 µg/mL
Aspergillus spp.; A. fumigatus MMX 5938
  MIC0: 0.25 µg/mL
Aspergillus spp.; A. fumigatus MMX 5939
  MIC0: 7 µg/mL
Aspergillus spp.; A. niger ATCC 29508
  MIC0: 0.5 µg/mL
Aspergillus spp.; A. terreus MMX 8229
  MIC0: 0.25 µg/mL
